Test results from publication PMC7609719 (2020).
Values belong to the molecule of their own block, whether it stands above or below them.

How the values were obtained:
[1] = system: ATP3 (DNA, aptamer) ACCTGGGGGAGTATTGCGGAGGAAGGT; assay: UV melting, 260 nm; conditions: Na+ (120 mM NaCl); 10 mM sodium acetate pH 5.5; 95% ligand-bound; derived from two Tm (45.2 ± 0.5, 44.2 ± 1.5)
[2] = system: Apt1d (DNA, aptamer) TTCGGGGAGTATTGCGGAGGAA; assay: ITC; conditions: Na+ (100 mM NaCl), Mg2+ (2 mM MgCl2); 10 mM HEPES pH 7.6, 20 °C; 100 µM DNA
[3] = system: ATP3 (DNA, aptamer) ACCTGGGGGAGTATTGCGGAGGAAGGT; assay: ITC, two-site cooperative fit; conditions: Na+ (120 mM NaCl), 10 mM sodium acetate pH 5.5, 20 °C, site 1 of 2
[4] = system: ATP7 (DNA, aptamer) ACCTGGGCGCGGGAGTATTGCGGAGCGAGGAAGGT; assay: ITC, two independent sites fit; conditions: Na+ (120 mM NaCl); 10 mM sodium acetate pH 5.5, 20 °C; 100 µM DNA; site 1 of 2
[5] = system: ATP17 (DNA, aptamer) ACCTGGGCGGGGAGTATTGCGGACGAGGAAGGT; assay: ITC, two-site cooperative fit; conditions: Na+ (120 mM NaCl); 10 mM sodium acetate pH 5.5, 20 °C; 100 µM DNA; site 1 of 2
[6] = system: ATP7 (DNA, aptamer) ACCTGGGCGCGGGAGTATTGCGGAGCGAGGAAGGT; assay: UV melting, 260 nm; conditions: Na+ (120 mM NaCl); 10 mM sodium acetate pH 5.5; 95% ligand-bound; derived from two Tm (55.6 ± 0.5, 55.8 ± 0.6)
[7] = system: Apt1d-GC1 (DNA, aptamer) TTCGGGGAGTATTGCGCAGGAA; assay: ITC; conditions: Na+ (100 mM NaCl), Mg2+ (2 mM MgCl2); 10 mM HEPES pH 7.6, 20 °C; 100 µM DNA
[8] = system: Apt1d-GC2 (DNA, aptamer) TTCGGGGCGTATTGCGCAGGAA; assay: ITC; conditions: Na+ (100 mM NaCl), Mg2+ (2 mM MgCl2); 10 mM HEPES pH 7.6, 20 °C; 100 µM DNA
[9] = system: ATP10 (DNA, aptamer, inosine at 9 (G9I)) ACCTGGGGGAGTATTGCGGAGGAAGGT; assay: ITC, one-site fit; conditions: Na+ (120 mM NaCl); 10 mM sodium acetate pH 5.5, 20 °C
[10] = system: ATP9 (DNA, aptamer, inosine at 22 (G22I)) ACCTGGGGGAGTATTGCGGAGGAAGGT; assay: ITC, one-site fit; conditions: Na+ (120 mM NaCl); 10 mM sodium acetate pH 5.5, 20 °C

melting temperature change (ΔTm, bound minus free) [1]: -1.0 °C | binding [2]: yes | Kd1 ([3]; average of fits at 10-100 µM aptamer): 25 ± 15 µM | Kd1 [4]: 1.3 ± 0.5 µM | Kd1 [5]: 44 ± 8 µM | melting temperature change (ΔTm, bound minus free) [6]: 0.2 °C | binding [7]: no | binding [8]: no | affinity [9]: 188 ± 37 µM | affinity [10]: 212 ± 69 µM
Structure (SMILES): Nc1ncnc2c1ncn2[C@@H]1O[C@H](CO)[C@@H](O)[C@H]1O

Kd1 ([3]; 70 µM DNA): 86 ± 26 µM
Structure (SMILES): Nc1ncnc2c1ncn2[C@@H]1O[C@H](COP(=O)(O)O)[C@@H](O)[C@H]1O

Kd1 ([3]; 70 µM DNA): 101 ± 33 µM
Structure (SMILES): Nc1ncnc2c1ncn2[C@@H]1O[C@H](COP(=O)(O)OP(=O)(O)O)[C@@H](O)[C@H]1O

Kd1 ([3]; 70 µM DNA): 133 ± 55 µM
Structure (SMILES): Nc1ncnc2c1ncn2[C@@H]1O[C@H](COP(=O)(O)OP(=O)(O)OP(=O)(O)O)[C@@H](O)[C@H]1O
